Marks after values point to notes of the source that are not given here.
What was measured:
[1] = test system: stifle of dogs after TPLO; assay: Radiographic, CT and MRI evaluation of bone healing; assay type: in vivo, dog; settings: for Pattern of healing N (no findings), No. of Dogs / Pattern of healing S (soft tissue swelling with normal bone healing), No. of Dogs / Pattern of healing S&B (soft tissue swelling and delayed bone healing), No. of Dogs: 4 dogs
Method: Radiographs of the stifle were performed before surgery, the day after surgery, at day 28, and at day 56. Dogs were sedated to allow for correct positioning of the leg and to minimize stress from handling. Standardized TPLO views (lateral and caudal-cranial) were acquired. An MRI and CT were also performed on the operated leg after the animals were euthanized and the surgical plate was removed (day 56).
Orthogonal plane radiographs of the stifle were obtained for all dogs at all timepoints. After euthanasia, CT was obtained in 11 of the 14 dogs and MRI in all dogs. Metal artifact due to the presence of a broken screw prevented the evaluation of one MR study. Soft tissues could not be reliably assessed due to disruption secondary to removal of the plate. There was no evidence of implant failure or suboptimal osteotomy repair in any dog. Upon review of all imaging modalities, three patterns of healing emerged (Table 9a).
The delay of bone healing refers to a slower bone healing process as compared to the findings in the rest of the dogs in this study. This is not to be considered as an absolute delayed bone healing since the dogs were only enrolled in the study for 56 days

left stifle joint = assay: Necropsy and histopathology of stifle joints; assay type: in vivo, dog; settings: for Bone remodeling with increased osteoblasts/osteoclasts: Mild, number of dogs / Bone remodeling with increased osteoblasts/osteoclasts: Minimal, number of dogs / Bone remodeling with increased osteoblasts/osteoclasts: Moderate, number of dogs / Bone remodeling with increased osteoblasts/osteoclasts: number of dogs with the finding / Collagen (picosirius red stain): number of dogs with the finding / Non-epiphyseal cartilage: Mild, number of dogs / Non-epiphyseal cartilage: Minimal, number of dogs / Non-epiphyseal cartilage: Moderate, number of dogs / Non-epiphyseal cartilage: number of dogs with the finding / Screw holes with intraluminal hemorrhage: Mild, number of dogs / Screw holes with intraluminal hemorrhage: number of dogs with the finding / Soft tissue mononuclear inflammation: Mild, number of dogs / Soft tissue mononuclear inflammation: Minimal, number of dogs / Soft tissue mononuclear inflammation: number of dogs with the finding / Synovial hypertrophy/hyperplasia: Mild, number of dogs / Synovial hypertrophy/hyperplasia: Minimal, number of dogs / Synovial hypertrophy/hyperplasia: Moderate, number of dogs / Synovial hypertrophy/hyperplasia: number of dogs with the finding: left stifle joint, 4 examined; for Average collagen score left leg (picosirius red): operated left stifle; for Average collagen score right leg (picosirius red): un-operated right stifle
From the text: These findings were confirmed during necropsy.
It was characterized by plump, variably piled synoviocytes with slightly more prominent fibrillary projections into the synovial spaces as compared to the control right stifle joints. Some control un-operated right stifle joints also occasionally had minimal synovial hypertrophy/hyperplasia typified by slightly plump, variably piled synoviocytes, but lacked increased fibrillary projections.
Soft tissue mononuclear inflammation was seen as small collections of lymphocytes, macrophages, and/or plasma cells or increased numbers of diffusely scattered mononuclear cells. The inflammation was commonly seen in the synovial lining subjacent to the synoviocytes, or in soft tissues that remained attached to the bone/joint. The incidences and average severity grades were not remarkably different between left joint groups.
Bone remodeling with increased osteoblasts/osteoclasts was characterized by irregular areas of bone/callous formation. Some areas of bone remodeling had increased cellularity due to increased numbers of osteoblasts and osteoclasts that outlined bone.
Presence of cartilage on the operated sides was presumptively interpreted to represent areas of residual cartilage in the physis which had been shifted/transposed by the TPLO surgery, and/or new cartilage formation. The amount of cartilage in each section was subjectively graded using the H&E and toluidine blue stains. […] Any differences could also be influenced by differences in physeal cartilage amounts/extent of physeal closure between dogs, and by plane-of-section variabilities.
A collagen score for each of the stifle joint slides stained with picosirius red was assigned based on the qualitative estimate of collagen present on the slide. The average of the three slides per joint was recorded. An overall collagen score for the left and right stifle joints for each group was calculated by averaging the individual collagen scores. […] The average collagen scores of groups 1-4 for the operated left legs were slightly higher than the corresponding un-operated right leg group average collagen scores. Higher collagen in the operated legs seemed consistent with post-surgical healing processes.

C=C(C)[C@]12C[C@@H](C)[C@@]34O[C@](Cc5ccccc5)(O[C@@H]1[C@@H]3C=C(COC(=O)Cc1ccc(O)c(OC)c1)C[C@]1(O)C(=O)C(C)=C[C@@H]41)O2 [RTX, resiniferatoxin]
Pattern of healing N (no findings), No. of Dogs ([1]; Group 1 (high dose)): 1 | Pattern of healing S (soft tissue swelling with normal bone healing), No. of Dogs ([1]; Group 1 (high dose)): 2 | Pattern of healing S&B (soft tissue swelling and delayed bone healing), No. of Dogs ([1]; Group 1 (high dose)): 1 | Pattern of healing N (no findings), No. of Dogs ([1]; Group 2 (low dose)): 2 | Pattern of healing S (soft tissue swelling with normal bone healing), No. of Dogs ([1]; Group 2 (low dose)): 1 | Pattern of healing S&B (soft tissue swelling and delayed bone healing), No. of Dogs ([1]; Group 2 (low dose)): 1 | Pattern of healing N (no findings), No. of Dogs ([1]; Group 3 (local)): 1 | Pattern of healing S (soft tissue swelling with normal bone healing), No. of Dogs ([1]; Group 3 (local)): 1 | Pattern of healing S&B (soft tissue swelling and delayed bone healing), No. of Dogs ([1]; Group 3 (local)): 2 | Effect on the bone healing process ([1]; distribution of healing patterns among the treatment groups): did not adversely affect the bone healing process | Microscopic changes in the left stifle joints (left stifle joint; all RTX groups, day 56): No microscopic changes in the left stifle joints suggestive of RTX-related toxicity | Callus at removal of the TPLO plate (left stifle joint; all stifles, confirmed during necropsy): normal callus | Bone remodeling with increased osteoblasts/osteoclasts: Mild, number of dogs (left stifle joint; Group 1 High (25 μg)): 2 | Bone remodeling with increased osteoblasts/osteoclasts: Minimal, number of dogs (left stifle joint; Group 1 High (25 μg)): 2 | Bone remodeling with increased osteoblasts/osteoclasts: Moderate, number of dogs (left stifle joint; Group 1 High (25 μg)): 0 | Bone remodeling with increased osteoblasts/osteoclasts: number of dogs with the finding (left stifle joint; Group 1 High (25 μg)): (4) | Collagen (picosirius red stain): number of dogs with the finding (left stifle joint; Group 1 High (25 μg)): (4) | Non-epiphyseal cartilage: Mild, number of dogs (left stifle joint; Group 1 High (25 μg)): 1 | Non-epiphyseal cartilage: Minimal, number of dogs (left stifle joint; Group 1 High (25 μg)): 1 | Non-epiphyseal cartilage: Moderate, number of dogs (left stifle joint; Group 1 High (25 μg)): 2 | Non-epiphyseal cartilage: number of dogs with the finding (left stifle joint; Group 1 High (25 μg)): (4) | Screw holes with intraluminal hemorrhage: Mild, number of dogs (left stifle joint; Group 1 High (25 μg)): 4 | Screw holes with intraluminal hemorrhage: number of dogs with the finding (left stifle joint; Group 1 High (25 μg)): (4) | Soft tissue mononuclear inflammation: Mild, number of dogs (left stifle joint; Group 1 High (25 μg)): 1 | Soft tissue mononuclear inflammation: Minimal, number of dogs (left stifle joint; Group 1 High (25 μg)): 3 | Soft tissue mononuclear inflammation: number of dogs with the finding (left stifle joint; Group 1 High (25 μg)): (4) | Synovial hypertrophy/hyperplasia: Mild, number of dogs (left stifle joint; Group 1 High (25 μg)): 4 | Synovial hypertrophy/hyperplasia: Minimal, number of dogs (left stifle joint; Group 1 High (25 μg)): 0 | Synovial hypertrophy/hyperplasia: Moderate, number of dogs (left stifle joint; Group 1 High (25 μg)): 0 | Synovial hypertrophy/hyperplasia: number of dogs with the finding (left stifle joint; Group 1 High (25 μg)): (4) | Bone remodeling with increased osteoblasts/osteoclasts: Mild, number of dogs (left stifle joint; Group 2 Low (6.25 μg)): 2 | Bone remodeling with increased osteoblasts/osteoclasts: Minimal, number of dogs (left stifle joint; Group 2 Low (6.25 μg)): 1 | Bone remodeling with increased osteoblasts/osteoclasts: Moderate, number of dogs (left stifle joint; Group 2 Low (6.25 μg)): 1 | Bone remodeling with increased osteoblasts/osteoclasts: number of dogs with the finding (left stifle joint; Group 2 Low (6.25 μg)): (4)^a | Collagen (picosirius red stain): number of dogs with the finding (left stifle joint; Group 2 Low (6.25 μg)): (4)^a | Non-epiphyseal cartilage: Mild, number of dogs (left stifle joint; Group 2 Low (6.25 μg)): 1 | Non-epiphyseal cartilage: Minimal, number of dogs (left stifle joint; Group 2 Low (6.25 μg)): 1 | Non-epiphyseal cartilage: Moderate, number of dogs (left stifle joint; Group 2 Low (6.25 μg)): 2 | Non-epiphyseal cartilage: number of dogs with the finding (left stifle joint; Group 2 Low (6.25 μg)): (4)^a | Screw holes with intraluminal hemorrhage: Mild, number of dogs (left stifle joint; Group 2 Low (6.25 μg)): 4 | Screw holes with intraluminal hemorrhage: number of dogs with the finding (left stifle joint; Group 2 Low (6.25 μg)): (4)^a | Soft tissue mononuclear inflammation: Mild, number of dogs (left stifle joint; Group 2 Low (6.25 μg)): 4 | Soft tissue mononuclear inflammation: Minimal, number of dogs (left stifle joint; Group 2 Low (6.25 μg)): 0 | Soft tissue mononuclear inflammation: number of dogs with the finding (left stifle joint; Group 2 Low (6.25 μg)): (4)^a | Synovial hypertrophy/hyperplasia: Mild, number of dogs (left stifle joint; Group 2 Low (6.25 μg)): 3 | Synovial hypertrophy/hyperplasia: Minimal, number of dogs (left stifle joint; Group 2 Low (6.25 μg)): 0 | Synovial hypertrophy/hyperplasia: Moderate, number of dogs (left stifle joint; Group 2 Low (6.25 μg)): 1 | Synovial hypertrophy/hyperplasia: number of dogs with the finding (left stifle joint; Group 2 Low (6.25 μg)): (4)^a | Bone remodeling with increased osteoblasts/osteoclasts: Mild, number of dogs (left stifle joint; Group 3 Local (50 μg)): 2 | Bone remodeling with increased osteoblasts/osteoclasts: Minimal, number of dogs (left stifle joint; Group 3 Local (50 μg)): 0 | Bone remodeling with increased osteoblasts/osteoclasts: Moderate, number of dogs (left stifle joint; Group 3 Local (50 μg)): 2 | Bone remodeling with increased osteoblasts/osteoclasts: number of dogs with the finding (left stifle joint; Group 3 Local (50 μg)): (4) | Collagen (picosirius red stain): number of dogs with the finding (left stifle joint; Group 3 Local (50 μg)): (4) | Non-epiphyseal cartilage: Mild, number of dogs (left stifle joint; Group 3 Local (50 μg)): 2 | Non-epiphyseal cartilage: Minimal, number of dogs (left stifle joint; Group 3 Local (50 μg)): 0 | Non-epiphyseal cartilage: Moderate, number of dogs (left stifle joint; Group 3 Local (50 μg)): 2 | Non-epiphyseal cartilage: number of dogs with the finding (left stifle joint; Group 3 Local (50 μg)): (4) | Screw holes with intraluminal hemorrhage: Mild, number of dogs (left stifle joint; Group 3 Local (50 μg)): 4 | Screw holes with intraluminal hemorrhage: number of dogs with the finding (left stifle joint; Group 3 Local (50 μg)): (4) | Soft tissue mononuclear inflammation: Mild, number of dogs (left stifle joint; Group 3 Local (50 μg)): 2 | Soft tissue mononuclear inflammation: Minimal, number of dogs (left stifle joint; Group 3 Local (50 μg)): 2 | Soft tissue mononuclear inflammation: number of dogs with the finding (left stifle joint; Group 3 Local (50 μg)): (4) | Synovial hypertrophy/hyperplasia: Mild, number of dogs (left stifle joint; Group 3 Local (50 μg)): 3 | Synovial hypertrophy/hyperplasia: Minimal, number of dogs (left stifle joint; Group 3 Local (50 μg)): 0 | Synovial hypertrophy/hyperplasia: Moderate, number of dogs (left stifle joint; Group 3 Local (50 μg)): 1 | Synovial hypertrophy/hyperplasia: number of dogs with the finding (left stifle joint; Group 3 Local (50 μg)): (4) | Average collagen score left leg (picosirius red) (left stifle joint; Group 1 High (25 μg)): 2.9 | Average collagen score left leg (picosirius red) (left stifle joint; Group 2 Low (6.25 μg)): 2.6 | Average collagen score left leg (picosirius red) (left stifle joint; Group 3 Local (50 μg)): 3.0 | Average collagen score right leg (picosirius red) (left stifle joint; Group 1 High (25 μg)): 2.3 | Average collagen score right leg (picosirius red) (left stifle joint; Group 2 Low (6.25 μg)): 2.3 | Average collagen score right leg (picosirius red) (left stifle joint; Group 3 Local (50 μg)): 2.4
